Where two headings read alike, the source gives them in different places.
Tests used:
[1] = test system: Wheat plants (Triticum aestivum cv. Cubus); assay: Growth-promoting effect on wheat plants after root treatment (hydroponic culture); assay type: in vivo; design: Shoot-FW ± SE / Root-FW ± SE: unit not given here; settings: for Root-FW ± SE / Shoot-FW ± SE / activity at 1 µM / activity at 3 µM: seven days after treatment; for activity at 1 µM / activity at 3 µM: Triticum aestivum, 168 h
Procedure: Wheat plants (Triticum aestivum cv. Cubus) at the 2nd leaf stage were cultivated in 320 mL glass vessels with 300 mL half-strength Linsmaier-Skoog medium (Physiologia Plantarum 18: 100-127, 1964). The solution was aerated throughout experiment. The vessels were incubated randomized in a climate chamber under 16:8 h light:dark cycles (photon flux density 400 μmol m-2 s-1, 400-750 nm, Osram powerstar HQI-R 250W/NDL and Osram krypton 100W lamps) at 22° C. (light):20° C. (dark) and 75% relative humidity (3 plants per vessel, 9 replicate vessels). After 2 days of adaptation, plants were treated with Dimethyl-carbamic acid 2-methylcarbamoyl-2-[(1-methyl-3-trifluoromethyl-1H-pyrazole-4-carbonyl)-amino]-1-(tetrahydro-pyran-4-yl)-ethyl ester (compound 1) which was added to the medium in dimethyl sulfoxide (DMSO) solution (0.1% final concentration of DMSO). Controls received corresponding quantity of DMSO alone, with no adverse effect on the growth of the plants. Seven days after treatment, fresh weights (FW) of shoot and root, as the growth parameters, were measured and mean values±standard error (SE) of 27 plant parts was calculated.

[2] = test system: Wheat plants (Triticum aestivum cv. Monopol); assay: Growth-promoting effect on wheat plants after foliar treatment (Example 2); assay type: in vivo; settings: for Number of tillers: per plant; for activity at 7.81 g/ha / activity at 15.63 g/ha / activity at 31.25 g/ha: Triticum aestivum, 504 h
Procedure: Wheat plants (Triticum aestivum cv. Monopol) were grown in soil with ten plants per pot (13 cm diameter) under greenhouse conditions. Plants at the 2nd leaf stage were sprayed with an aqueous solution of formulated Dimethyl-carbamic acid 2-methylcarbamoyl-2-[(1-methyl-3-trifluoromethyl-1H-pyrazole-4-carbonyl)-amino]-1-(tetrahydro-pyran-4-yl)-ethyl ester (compound 1). The compound was applied at three different dose rates, i.e. 31.25/15.63/7.81 g ai/ha and the spray volume was 750 l/ha. Ten replicate pots with ten plants each were used per treatment. After three weeks (21 days) plants were harvested and growth parameters were determined. The recorded parameters were fresh weight, dry weigh, leaf area (all per pot) and number of tillers (per plant). Mean values of results, standard deviation (SD) and percentage to control were calculated.

[3] = 7.81 g/ha foliar spray, 21 days, per pot
[4] = 15.63 g/ha foliar spray, 21 days, per pot
[5] = 31.25 g/ha foliar spray, 21 days, per pot

CNC(=O)C(NC(=O)c1cn(C)nc1C(F)(F)F)C(OC(=O)N(C)C)C1CCOCC1 (stereo not shown) [Compound 1, Dimethyl-carbamic acid 2-methylcarbamoyl-2-[(1-methyl-3-trifluoromethyl-1H-pyrazole-4-carbonyl)-amino]-1-(tetrahydro-pyran-4-yl)-ethyl ester]
Root-FW ± SE ([1]; Experiment 1, 1 μM in medium): 0.403 ± 0.015 | Shoot-FW ± SE ([1]; Experiment 1, 1 μM in medium): 0.747 ± 0.017 | Root-FW ± SE ([1]; Experiment 1, 3 μM in medium): 0.382 ± 0.013 | Shoot-FW ± SE ([1]; Experiment 1, 3 μM in medium): 0.733 ± 0.019 | Root-FW ± SE ([1]; Experiment 2, 1 μM in medium): 0.342 ± 0.010 | Shoot-FW ± SE ([1]; Experiment 2, 1 μM in medium): 0.736 ± 0.024 | Root-FW ± SE ([1]; Experiment 2, 3 μM in medium): 0.335 ± 0.012 | Shoot-FW ± SE ([1]; Experiment 2, 3 μM in medium): 0.738 ± 0.021 | activity at 1 µM ([1]; Experiment 1, 1 μM in medium, read-out: Root-FW % of control): 113% | activity at 1 µM ([1]; Experiment 1, 1 μM in medium, read-out: Shoot-FW % of control): 115% | activity at 3 µM ([1]; Experiment 1, 3 μM in medium, read-out: Root-FW % of control): 107% | activity at 3 µM ([1]; Experiment 1, 3 μM in medium, read-out: Shoot-FW % of control): 112% | activity at 1 µM ([1]; Experiment 2, 1 μM in medium, read-out: Root-FW % of control): 105% | activity at 1 µM ([1]; Experiment 2, 1 μM in medium, read-out: Shoot-FW % of control): 115% | activity at 3 µM ([1]; Experiment 2, 3 μM in medium, read-out: Root-FW % of control): 103% | activity at 3 µM ([1]; Experiment 2, 3 μM in medium, read-out: Shoot-FW % of control): 115% | shoot tillering and adventitious root growth ([1]; root treatment): promoted | stimulation of shoot and root growth relative to controls ([1]; root treatment, 1 and 3 μM, two experiments): up to 15% | Number of tillers ([2]; 7.81 g/ha foliar spray, 21 days): 2.9 | Leaf area [2, 3]: 1121.1 cm^2 | Shoot DW [2, 3]: 4.4 g | Shoot FW [2, 3]: 43.9 g | Number of tillers ([2]; 15.63 g/ha foliar spray, 21 days): 2.8 | Leaf area [2, 4]: 1046.3 cm^2 | Shoot DW [2, 4]: 4.0 g | Shoot FW [2, 4]: 40.5 g | Number of tillers ([2]; 31.25 g/ha foliar spray, 21 days): 2.8 | Leaf area [2, 5]: 1060.3 cm^2 | Shoot DW [2, 5]: 4.2 g | Shoot FW [2, 5]: 42.8 g | activity at 7.81 g/ha ([2]; 7.81 g/ha foliar spray, 21 days, read-out: Leaf area % of control): 126% | activity at 7.81 g/ha ([2]; 7.81 g/ha foliar spray, 21 days, read-out: Number of tillers % of control): 118% | activity at 7.81 g/ha ([2]; 7.81 g/ha foliar spray, 21 days, read-out: Shoot DW % of control): 127% | activity at 7.81 g/ha ([2]; 7.81 g/ha foliar spray, 21 days, read-out: Shoot FW % of control): 126% | activity at 15.63 g/ha ([2]; 15.63 g/ha foliar spray, 21 days, read-out: Leaf area % of control): 118% | activity at 15.63 g/ha ([2]; 15.63 g/ha foliar spray, 21 days, read-out: Number of tillers % of control): 114% | activity at 15.63 g/ha ([2]; 15.63 g/ha foliar spray, 21 days, read-out: Shoot DW % of control): 116% | activity at 15.63 g/ha ([2]; 15.63 g/ha foliar spray, 21 days, read-out: Shoot FW % of control): 116% | activity at 31.25 g/ha ([2]; 31.25 g/ha foliar spray, 21 days, read-out: Leaf area % of control): 120% | activity at 31.25 g/ha ([2]; 31.25 g/ha foliar spray, 21 days, read-out: Number of tillers % of control): 114% | activity at 31.25 g/ha ([2]; 31.25 g/ha foliar spray, 21 days, read-out: Shoot DW % of control): 122% | activity at 31.25 g/ha ([2]; 31.25 g/ha foliar spray, 21 days, read-out: Shoot FW % of control): 123% | growth promoting (yield increasing) effect, dose response ([2]; by lowering the dose rate): more pronounced | shoot tillering ([2]; foliar treatment): increased | increase in fresh and dry weight related to control ([2]; foliar treatment, 7.81-31.25 g/ha): up to 26% | Leaf area ([2]; foliar treatment, lowest dose rate gave the highest effect): increased

From US20110209253A1, “Method for Improving Plant Health” (BASF SE, priority 2008, published 2011)
